Assay results: patent publication US8394786B2, “Quinazoline derivatives” (Janssen Pharmaceutica N.V., priority 2003, dated 2013)
pIC50: −log10 of the molar value.

Key:
EGFR [1] = molecular target: T1, EGFR (Homo sapiens, UniProt P00533); test: In vitro inhibition of EGFR, Flash Plate or glass-fiber filter technology (C2); type: biochemical; design: 0.5 μg EGFR-kinase domain/well; conditions: EGFR-kinase domain, 5.0 μM unlabeled ATP, read-out: Kinase activity.(C2): pIC50 (converted)
In short: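 EGFR kinase domain (0.5 μg/well) phosphorylated poly(GT) with 5.0 μM ATP plus AT^33P, dose response 1·10^−6 to 1·10^−10 M. Flash Plate: biotin-poly(GT), Tris pH 8.0, 30° C, 60 min, scintillation counting. Filter: Tris pH 7.5 with MnCl2, 25° C, 10 min, 33P counted on glass-fiber filter by phosphorimaging.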
Target sequence in this assay (P00533 712-979 limits assumed): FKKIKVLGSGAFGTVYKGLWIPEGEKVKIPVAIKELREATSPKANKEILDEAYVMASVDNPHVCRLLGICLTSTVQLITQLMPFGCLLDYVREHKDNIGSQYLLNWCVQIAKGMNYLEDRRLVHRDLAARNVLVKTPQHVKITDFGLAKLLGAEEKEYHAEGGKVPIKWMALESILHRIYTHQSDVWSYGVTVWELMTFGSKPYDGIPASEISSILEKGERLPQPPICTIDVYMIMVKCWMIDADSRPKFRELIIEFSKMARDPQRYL

SKOV3 cells = test: Serum starved proliferation assay on the ovarian carcinoma SKOV3 cells (C3); type: cell-based; conditions: Homo sapiens, SK-OV-3, 72 h, EGF stimulated (100 ng/ml, 72 hours, serum free) or 72 hours with compounds; MTT cell viability assay; read-out: SKOV3 cell (C3): pIC50 (converted)
In short: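 SKOV3 cells grown 24 h in 10% FCS, then treated with compound under serum-free conditions (37 °C, 5% CO2) and stimulated 72 h with EGF at 100 ng/ml final; read-out by MTT viability. Alternative format: compound for 72 h after the same 24 h FCS step, also by MTT.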

EGFR [2] = molecular target: T1, EGFR; test: ELISA assay of EGFR tyrosine kinase activity (C4); type: biochemical; conditions: poly(Glu, Tyr) coated plate, 5 μM ATP, room temperature 10 min
Description: The EGFR ELISA is generally described by Yang, E. B. et al., 2001, Biochimica et Biophysica Acta, 1550; 144.
For the determination of EGFR tyrosine kinase activity, 100 μl of 0.4 μg/ml poly(Glu, Tyr) in PBS was coated per well on a 96-well microplate at 37° C. overnight. […] After washing three times with PBS the plates were either used immediately or stored at 4° C. Prior to the determination of the EGFR tyrosine kinase activity, the coated plates were washed two times with PBS. Next, to each well 88 μl of an ATP dilution (50 mM Tris HCl pH 8.0, 10 mM MgCl2, 100 μM Na3VO4, 1 mM DTT, 5 μM ATP) and 2 μl with various concentrations of the compounds to be tested, were added. The EGFR tyrosine kinase-catalysed reaction was started by the addition of 10 μl of diluted EGFR (dilution→0.05 μg per well enzyme diluted in 50 mM TrisHCl pH 8.0+0.1% BSA). After incubation at room temperature for 10 min, the reaction was stopped by washing five times with PBS with 0.1% Tween 20. Subsequently […] of recombinant anti-phosphotyrosine horseradish peroxidase conjugate (1:2500) in BSA (10 mg/ml in PBS) was added. After incubation at room temperature for 1 h, the microplate was washed five times with PBS/Tween 20. After the microplate was incubated with 100 μl of TMB-ELISA (1-step Ultra TMB-ELISA, Pierce) until colour development, 100 μl of 0.5 M H2SO4 was added to stop the reaction, and it was read in a microplate reader at 450-655 nm.
Target sequence in this assay (P00533 25-1210): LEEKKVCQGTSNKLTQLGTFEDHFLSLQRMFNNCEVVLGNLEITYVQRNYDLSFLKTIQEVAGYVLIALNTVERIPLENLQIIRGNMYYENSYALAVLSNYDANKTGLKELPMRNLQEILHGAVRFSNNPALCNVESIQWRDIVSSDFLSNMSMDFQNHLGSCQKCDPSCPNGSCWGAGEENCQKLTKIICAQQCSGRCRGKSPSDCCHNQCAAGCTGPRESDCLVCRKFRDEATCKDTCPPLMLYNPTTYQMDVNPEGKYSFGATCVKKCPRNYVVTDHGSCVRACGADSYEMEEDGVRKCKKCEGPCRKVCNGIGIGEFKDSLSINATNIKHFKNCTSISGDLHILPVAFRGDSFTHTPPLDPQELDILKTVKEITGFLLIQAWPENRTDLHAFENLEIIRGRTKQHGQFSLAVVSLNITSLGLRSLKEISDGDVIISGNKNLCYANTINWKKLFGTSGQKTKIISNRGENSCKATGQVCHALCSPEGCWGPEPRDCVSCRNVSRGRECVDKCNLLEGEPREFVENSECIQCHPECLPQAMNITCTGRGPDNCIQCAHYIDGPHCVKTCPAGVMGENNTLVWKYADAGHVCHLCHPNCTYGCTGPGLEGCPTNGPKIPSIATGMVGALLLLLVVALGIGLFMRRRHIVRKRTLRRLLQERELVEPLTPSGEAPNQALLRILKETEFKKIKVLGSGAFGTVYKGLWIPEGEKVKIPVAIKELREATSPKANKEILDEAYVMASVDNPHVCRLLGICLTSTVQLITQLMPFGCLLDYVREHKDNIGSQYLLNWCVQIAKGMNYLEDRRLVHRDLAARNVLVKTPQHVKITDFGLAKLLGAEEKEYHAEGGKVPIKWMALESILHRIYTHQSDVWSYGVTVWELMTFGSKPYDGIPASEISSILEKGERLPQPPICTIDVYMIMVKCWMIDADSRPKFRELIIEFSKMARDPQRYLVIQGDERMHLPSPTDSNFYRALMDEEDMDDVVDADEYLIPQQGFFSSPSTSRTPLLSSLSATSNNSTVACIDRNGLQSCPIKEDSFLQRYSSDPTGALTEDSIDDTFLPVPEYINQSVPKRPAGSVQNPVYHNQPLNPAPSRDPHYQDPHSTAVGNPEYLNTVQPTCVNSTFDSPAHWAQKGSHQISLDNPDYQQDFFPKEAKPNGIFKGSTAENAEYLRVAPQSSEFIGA

A431 cells = test: Proliferation assay on the squamous carcinoma cell line A431 cells (C5); type: cell-based; conditions: Homo sapiens, A-431; 72 hours with compounds; MTT cell viability assay; read-out: A431 cell (C5): pIC50 (converted)
Description: The squamous carcinoma cell line (A431) was used in a cell proliferation assay, to assess the inhibitory effect of the compounds in whole cells.
In a first step the A431 cells were incubated for 24 hours in the presence of 10% FCS serum. In the second step the cells were incubated for 72 hours with the compounds to be tested at a final concentration of 100 ng/ml. The effect of the compounds on the cell proliferation was finally assessed in a standard MTT cell viability assay.

SMILES | IC50 (EGFR [1]) | IC50 (SKOV3 cells) | pIC50 (EGFR [2]) | IC50 (A431 cells) | melting point
COC(=O)c1ccc2c(c1)Nc1ncnc3cc(OC)c(cc13)OCCCCCCO2 [Compound 10, 4,6-ethanediylidene-19H-pyrimido[4,5-b][6,13,1]benzodioxaazacyclo-pentadecine-17-carboxylic acid, 8,9,10,11,12,13-hexahydro-20-methoxy-, methyl ester] | 0.0501 µM | > 10 µM | < 6.00 | > 3.16 µM | –
COc1cc2ncnc3c2cc1OCCCCCCOc1ccc(C(=O)O)cc1N3 [Compound 11, 4,6-ethanediylidene-19H-pyrimido[4,5-b][6,13,1]benzodioxaazacyclo-pentadecine-17-carboxylic acid, 8,9,10,11,12,13-hexahydro-20-methoxy-] | > 10 µM | > 10 µM | < 6.00 | > 3.16 µM | –
COc1cc2ncnc3c2cc1OCCCCCCOc1ccc(C(=O)N2CCCC2)cc1N3 [Compound 12, pyrrolidine, 1-[(8,9,10,11,12,13-hexahydro-20-methoxy-4,6-ethane-diylidene-19H-pyrimido[4,5-b][6,13,1]benzodioxaazacyclopentadecin-17-yl)carbonyl]-] | > 10 µM | > 10 µM | < 6.00 | > 3.16 µM | –
COc1cc2ncnc3c2cc1OCCCCCCOc1ccc(C#N)cc1N3 [Compound 13, 4,6-ethanediylidene-19H-pyrimido[4,5-b][6,13,1]benzodioxaazacyclo-pentadecine-17-carbonitrile, 8,9,10,11,12,13-hexahydro-20-methoxy-] | 0.316 µM | > 10 µM | < 6.00 | > 3.16 µM | –
Oc1cc2ncnc3c2cc1OCCCCCCOc1ccc(Br)cc1N3 [Compound 16, 4,6-ethanediylidene-19H-pyrimido[4,5-b][6,13,1]benzodioxaazacyclo-pentadecin-20-ol, 17-bromo-8,9,10,11,12,13-hexahydro-] | 2.51 µM | – | < 6.00 | – | –
Brc1ccc2c(c1)Nc1ncnc3cc(OCCCN4CCOCC4)c(cc13)OCCCCCCO2 [Compound 17, 4,6-ethanediylidene-19H-pyrimido[4,5-b][6,13,1]benzodioxaazacyclo-pentadecine, 17-bromo-8,9,10,11,12,13-hexahydro-20-[3-(4-morpholinyl)propoxy]-acetic acid] | 0.0398 µM | 8.32 µM | 6.57 | 2.51 µM | –
Brc1ccc2c(c1)Nc1ncnc3ccc(cc13)OCCCCCCO2 [Compound 18, 4,6-ethanediylidene-19H-pyrimido[4,5-b][6,13,1]benzodioxaazacyclo-pentadecine, 17-bromo-8,9,10,11,12,13-hexahydro-] | 0.0794 µM | > 10 µM | < 6.00 | – | –
COc1cc2ncnc3c2cc1OCCCCCNCc1cc(F)c(Cl)cc1N3 [Compound 30, 4,6-ethanediylidenepyrimido[4,5-b][6,1,12]benzoxadiazacyclopentadecine, 17-chloro-16-fluoro-8,9,10,11,12,13,14,19-octahydro-20-methoxy-] | 0.0316 µM | 1.02 µM | – | > 1 µM | –
COc1cc2ncnc3c2cc1OCCCCCCOc1ccc(-c2ccccc2)cc1N3 [Compound 34, 4,6-ethanediylidene-19H-pyrimido[4,5-b][6,13,1]benzodioxaazacyclopentadecine, 8,9,10,11,12,13-hexahydro-20-methoxy-17-phenyl-] | 0.0631 µM | > 10 µM | – | > 3.16 µM | –
COc1cc2ncnc3c2cc1OCCCCCCOc1ccc(-c2cccc(C#N)c2)cc1N3 [Compound 35, benzonitrile, 3-(8,9,10,11,12,13-hexahydro-20-methoxy-4,6-ethanediylidene-19H-pyrimido[4,5-b][6,13,1]benzodioxaazacyclopentadecin-17-yl)-] | 3.98 µM | > 10 µM | – | > 3.16 µM | –

Next, values leading:

IC50 (EGFR [1]) | IC50 (SKOV3 cells) | pIC50 (EGFR [2]) | IC50 (A431 cells) | melting point | SMILES
> 10 µM | > 10 µM | < 6.00 | > 3.16 µM | – | COc1cc2ncnc3c2cc1OCCCCCCOc1ccc(C(=O)N2CCOCC2)cc1N3 [Compound 14, morpholine, 4-[(8,9,10,11,12,13-hexahydro-20-methoxy-4,6-ethane-diylidene-19H-pyrimido[4,5-b][6,13,1]benzodioxaazacyclopentadecin-17-yl)carbonyl]-]
0.01 µM | 0.813 µM | 6.80 | > 3.16 µM | – | COc1cc2ncnc3c2cc1OCCCCCCCc1ccc(Br)cc1N3 [Compound 21, 4,6-ethanediylidenepyrimido[4,5-b][6,1]benzoxaazacyclopentadecine, 17-bromo-8,9,10,11,12,13,14,19-octahydro-20-methoxy-]
0.02 µM | 3.16 µM | – | > 3.16 µM | 127.2 to 132.2 °C | COc1cc2ncnc3c2cc1OCCCCCCCCON=Cc1ccc(Cl)cc1N3 [Compound 24, 4,6-ethanediylidene-23H-pyrimido[4,5-b][6,15,1,16]benzo-dioxadiazacyclononadecine, 21-chloro-8,9,10,11,12,13,14,15-octahydro-24-methoxy-]
0.0251 µM | 1.74 µM | – | 1.58 µM | – | COc1cc2ncnc3c2cc1OCCN(CCN1CCOCC1)CCCOc1ccc(Cl)cc1N3 [Compound 33, 4,6-etheno-19H-pyrimido[5,4-k][1,8,5,13]benzodioxadiazacyclopentadecine, 17-chloro-8,9,10,11,12,13-hexahydro-20-methoxy-10-[2-(4-morpholinyl)ethyl]-]
0.0158 µM | 0.166 µM | – | > 3.16 µM | – | COc1cc2ncnc3c2cc1OCCCCCCNC(=O)c1ccc(Cl)cc1N3 [Compound 36, 4,6-ethanediylidene-8H-pyrimido[4,5-b][6,1,13]benzoxadiazacyclohexadecin-15(20H)-one, 18-chloro-9,10,11,12,13,14-hexahydro-21-methoxy-]
> 10 µM | > 10 µM | – | > 3.16 µM | – | COc1cc2ncnc3c2cc1OCCCCCCOc1cc(Cl)ccc1N3 [Compound 37, 4,6-ethanediylidene-19H-pyrimido[4,5-b][6,13,1]benzodioxaazacyclopentadecine, 16-chloro-8,9,10,11,12,13-hexahydro-20-methoxy-]
0.02 µM | 0.126 µM | – | 1.26 µM | – | COc1cc2ncnc3c2cc1OCCCCCOCCc1ccc(Cl)cc1N3 [Compound 38, 4,6-ethanediylidene-8H,14H-pyrimido[4,5-b][6,12,1]benzodioxaazacyclohexadecine, 18-chloro-9,10,11,12,15,20-hexahydro-21-methoxy-]
0.02 µM | 0.2 µM | – | 1.58 µM | – | COc1cc2ncnc3c2cc1OCCOCCOCCc1ccc(Cl)cc1N3 [Compound 39, 4,6-ethanediylidene-14H-pyrimido[4,5-b][6,9,12,1]benzotrioxaazacyclohexadecine, 18-chloro-8,9,11,12,15,20-hexahydro-21-methoxy-]
0.0316 µM | 0.0501 µM | – | 0.631 µM | – | COc1cc2ncnc3c2cc1OCCCC(=O)NCCCc1ccc(Cl)cc1N3 [Compound 40, 4,6-ethanediylidene-8H-pyrimido[4,5-b][6,1,11]benzoxadiazacyclohexadecin-11(12H)-one, 18-chloro-9,10,13,14,15,20-hexahydro-21-methoxy-]
